# Values of other authors as cited in the CATMoS acute toxicity set (Mansouri et al. 2021).
# “And” between values parts separate entries of the source, which are not always exact repeats. Equal entries are not always repeated.
# Test: rat acute oral toxicity
# Conditions: in vivo
# Text: […]The data set underlying the modeling effort for this project was initially compiled by NICEATM and U.S. EPA’s CCTE. Briefly, LD50 data were collected from rat acute oral systemic toxicity tests, including limit tests, ranges/confidence intervals, and discrete LD50 values. The full data set included 21,200 LD50 entries for 15,688 substances. […] Data were reviewed to ensure that LD50 values with obvious errors in the extracted data such as unit conversion errors (e.g., comma and decimal separator misplacements) were either fixed or removed. After this review, 16,209 LD50 values remained. Many of the chemicals represented had multiple LD50 entries, requiring that a single representative value per Chemical Abstracts Service Registry Number (CASRN) identifier be defined to facilitate modeling efforts. Based on ATWG feedback and to define the representative LD50 as a protective value while accounting for the distribution across multiple LD50s, the median of the lowest quartile was computed using only discrete LD50 values (omitting limit test data and range and confidence interval data). A detailed summary of the data compilation is available online on the NICEATM webpage dedicated to the collaborative modeling project (NTP 2020).
# […][…] For categorical designations, limit test and range/confidence interval LD50 data were integrated wherever possible. As such, the number of chemicals with end point values/calls varies across the modeling end points (Table 3) based on whether chemicals had representative LD50 values and/or other data. If a chemical had both, the representative value was used to determine categorical calls rather than limit test data. Some data were useable only for certain end points and categories depending on the thresholds. For example, ranges that spanned multiple hazard categories were considered only for the binary (very toxic/nontoxic) end points and omitted from rendering a determination for hazard category assignment.
# […]The final data set comprising 11,992 chemicals was split into training and evaluation sets […], respectively. This process was performed semirandomly by ordering chemicals based on the five end points (categorical and continuous LD50 values) and partitioning every fourth record into the evaluation set accordingly. This approach was taken to ensure an equivalent distribution of the LD50 values and the different hazard categories between the training and the evaluation sets without supervised sampling of the chemicals based on structures (Figure 1A). The sources of the chemical structures were also kept equivalent between the two sets, with chemical structures obtained from DSSTox, being the highest quality, representing over 75% of each set (Figure 1B).
row,SMILES,LD50
1,ON=CC(O)(C#Cc1ccccc1)c1ccccc1 (stereo not given),8750 mg/kg
2,OC[C@H]1CO[C@@H](Cc2ccccc2)O1,1720 mg/kg
3,CC(NN)c1ccccc1 (stereo not given),458 mg/kg
4,C=CC(=O)OCCOCCOCCOC(=O)C=C,500 mg/kg
5,CC(CCCCCCCCCCCCCCCCC(=O)O)N(C)Cc1cc(C(C)N(C)CCCCCCCCCCCCCCCCCC(=O)O)cc(C(C)N(C)CCCCCCCCCCCCCCCCCC(=O)O)c1O (stereo not given),11800 mg/kg
6,CC(CC(c1ccccc1)c1ccccc1)NC(C)(C)C (stereo not given),465 mg/kg
7,Cc1cc(Cl)ccc1OCC(=O)O,1200 mg/kg and 800 mg/kg
8,CC(=O)O[C@]1(C(C)=O)CC[C@H]2[C@@H]3C=C(Cl)C4=CC(=O)CC[C@]4(C)[C@H]3CC[C@@]21C,6400 mg/kg
9,CCc1cc(C(N)=S)ccn1,1320 mg/kg
10,C[C@@H]1CC=CC=CC=CC=C[C@H](O[C@@H]2O[C@H](C)[C@@H](O)[C@H](N)[C@@H]2O)C[C@@H]2O[C@](O)(C[C@@H](O)C[C@H]3O[C@@H]3C=CC(=O)O1)C[C@H](O)[C@H]2C(=O)O,2730 mg/kg
11,O=C(O)c1ccc2ccccc2c1,4500 mg/kg
12,CC(=O)NC(N)=S,50 mg/kg
13,N/C(=N\c1c([N+](=O)[O-])cnc2ccccc12)N1CCOCC1,4000 mg/kg
14,C=CC(O)CCCCC (stereo not given),340 mg/kg
15,COc1ccc(CNc2cc(C(O)CNC(C)(C)C)ccc2O)cc1 (stereo not given),1850 mg/kg
16,Clc1cccc(C(Cl)(Cl)Cl)n1,940 mg/kg
17,O=c1[nH]c2ccccc2c(=O)n1CCCN1CCN(c2cccc(Cl)c2)CC1,7650 mg/kg
18,CC1(C(=O)O)CC=CCC1 (stereo not given),2140 mg/kg
19,C[C@H](CN1CCOCC1)C(C(=O)N1CCCC1)(c1ccccc1)c1ccccc1,71.8 mg/kg
20,CCCCOc1ccc(CC(=O)NO)cc1,3370 mg/kg
21,CN(C)C1CSSSC1,195 mg/kg
22,c1cc2c(c(NC3=NCCN3)c1)CCCC2,190 mg/kg
23,Cc1ccc(OC(=O)c2ccccc2O)cc1,1300 mg/kg
24,CCOc1ccccc1N1CCN(CC=Cc2ccc3c(c2)CCC(=O)N3)CC1,500 mg/kg
25,CCCCCCCCCCCCOC(=O)c1ccccc1,34500 mg/kg
26,CC(C)(C)c1cc(C=C(C#N)C#N)cc(C(C)(C)C)c1O,87 mg/kg
27,CN(C(=O)c1ccc(N)cc1)C1CCN(C2CCCCC2)C1 (stereo not given),422 mg/kg
28,CCC(C)c1ccc(OC(=O)NC)cc1 (stereo not given),44 mg/kg

row,SMILES,LD50
1,CC(C(=O)O)c1ccc(C(=O)c2ccccc2)s1 (stereo not given),181 mg/kg
2,CON=CC1=CCCN(OC(=O)Nc2ccc(Cl)cc2)C1,500 mg/kg
3,COc1cc2c(cc1OC)C1CC(=O)C(CCC#N)CN1CC2 (stereo not given),620 mg/kg
4,CN(CCc1ccccc1)N=O,48 mg/kg
5,C=CCNP(=O)(OC=C(Cl)Cl)OCCCl (stereo not given),25 mg/kg
6,CCC(C(=O)N1CCCC1C)(c1ccccc1)c1ccccc1 (stereo not given),326 mg/kg
7,CCCCC(CC)C(=O)OCCOCCOCCOCCOC(=O)C(CC)CCCC (stereo not given),18000 mg/kg
8,C=CC1(C)OC(=O)N(c2cc(Cl)cc(Cl)c2)C1=O (stereo not given),10000 mg/kg
9,Cc1cc(CC(C)CC(C)(C)C)oc(=O)c1 (stereo not given),1480 mg/kg
10,CCn1c2c(c3cc(N)ccc31)CCCC2,198 mg/kg
11,CS(=O)(=O)c1ccc(-c2cn3ccccc3n2)cc1,3710 mg/kg
12,N#CCCl,220 mg/kg
13,CCCC(CCC)C(C)NC(=O)CC (stereo not given),700 mg/kg
14,O=Nc1ccc(N=O)cc1,1020 mg/kg
15,CC(C)(OO)c1ccccc1,382 mg/kg
16,Nc1ccc(Cc2ccc(N)cc2)cc1,517 mg/kg
17,Cc1ncc(C[n+]2csc(CCO)c2C)c(N)n1,3710 mg/kg
18,CC1OCN=C(c2ccccc2)S1 (stereo not given),655 mg/kg
19,C/N=N/Nc1ccccc1,420 mg/kg
20,O=S1(=O)CCCCO1,500 mg/kg
21,O=C(CCBr)N1CCN(C(=O)CCBr)CC1,220 mg/kg
22,CC[N+](CC)(CC(=O)Nc1c(C)cccc1C)Cc1ccccc1,584 mg/kg
23,O=C1OCCC1N(C(=O)C1CC1)c1cccc(Cl)c1 (stereo not given),174 mg/kg
24,COC1=C2C[C@@H](C)C[C@H](OC)[C@H](O)[C@@H](C)C=C(C)[C@H](OC(N)=O)[C@@H](OC)C=CC=C(C)C(=O)NC(=CC1=O)C2=O,2500 mg/kg
25,CN(C)CCC1(c2ccccc2)C=Cc2ccccc21 (stereo not given),385 mg/kg
26,CN(C)N=Nc1ccc(I)cc1,574 mg/kg
27,CN(CO)C(=S)S,590 mg/kg
